Consider 23 compounds from patent US20190194148A1, “TETRAZOLE-CONTAINING 1,2-CYCLOPROPANE-CARBOXAMIDES” (Bayer Pharma Aktiengesellschaft, priority 2017, published 2019).

What is called pIC50 is −log10 of the IC50, conventionally taken in molar units.

The assay deals with T1, human B1 receptor (Homo sapiens, UniProt P46663).
T1 construct: host or cells: CHO-K1
T1 sequence (P46663 1-353): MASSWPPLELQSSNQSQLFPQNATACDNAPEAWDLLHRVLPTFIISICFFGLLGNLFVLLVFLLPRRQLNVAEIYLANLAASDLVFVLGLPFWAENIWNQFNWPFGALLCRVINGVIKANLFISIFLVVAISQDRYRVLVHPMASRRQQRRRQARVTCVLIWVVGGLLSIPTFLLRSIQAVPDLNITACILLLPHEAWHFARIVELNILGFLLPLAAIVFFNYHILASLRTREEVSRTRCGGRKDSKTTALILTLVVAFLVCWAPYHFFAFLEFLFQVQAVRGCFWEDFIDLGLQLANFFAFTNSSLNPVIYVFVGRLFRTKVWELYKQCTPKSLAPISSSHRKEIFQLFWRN
Kind of assay: Calcium flux assay (FLIPR) with recombinant CHO-K1 cells expressing human B1 receptor. The format is cell-based. As for the experimental part:
The potency to inhibit the Bradykinin B1 receptors was determined for the example compounds of this invention in a cell-based fluorescent calcium-mobilisation assay. The assay measures the ability of example compounds to inhibit Bradykinin B1 receptor agonist-induced increase of intracellular free Ca^2+ in the cell line expressing B1 receptor. Specifically, calcium indicator-loaded cells are pre-incubated in the absence or presence of different concentrations of example compounds followed by the stimulation with a selective B1 receptor agonist peptide. The change of the intracellular Ca^2+ concentration is monitored with a fluorescent plate reader FLIPR (Molecular Devices).
Calcium Flux Assays (FLIPR) with Cells Expressing Bradykinin B1 Receptor Calcium Flux Assay (FLIPR) with Recombinant Cells for Bradykinin B1 Receptor Antagonist, Either in the Presence (hB1 IC50) or Absence (hB1 free IC50) of 0.1% Bovine Serum Albumin (BSA) in Assay Buffer
CHO-K1 cell line expressing human B1 receptor was purchased from Euroscreen (Gosselies, Belgium, with reference name hB1-D1). The cells were grown in Nutrient Mixture Ham's F12 (Sigma) containing 10% Foetal bovine serum (Sigma) and 400 μg/mL G418 (Sigma), 5 μg/mL puromycin (Sigma).
For the calcium flux assay, 80% confluent cells were detached from the culture vessels with Versene (Gibco), and seeded into 384-well plates (Cell binding Surface; Corning, N.Y.; #3683) at a density of 15,000 cells per well. Cells were seeded in a volume of 50 μL in medium without antibiotics and incubated overnight in a humidified atmosphere with 5% CO2 at 37° C. […] The calcium indicator loaded cells were incubated at 37° C. for 2 hrs. Extracellular dye was then removed and each well was filled with 45 μL of assay buffer. Cell plates were kept in dark until used. Example compounds were assayed at 8 concentrations in triplicate. Serial 10-fold dilutions in 100% DMSO were made at a 100-times higher concentration than the final concentration, and then diluted 1:10 in assay buffer. 5 μL of each diluted compound was added to the well of cell plates (yielding final concentration with 1% DMSO), and incubated for 30 min at 28° C. before the addition of B1 receptor agonist on the FLIPR instrument.
Agonist plates contained the agonist Lys-(Des-Arg)-Bradykinin (Bachem, Brackley) at 3.5×EC90 in assay buffer with 1% DMSO. The addition of agonist 20 μl per well to the assay plate was carried out on the FLIPR instrument while continuously monitoring Ca^2+-dependent fluorescence at 538 nm. A peptide antagonist Lys-(Des-Arg-Leu)-Bradykinin (Bachem, Brackley) at 20 μM was used to determine the full inhibition as control.
Peak fluorescence was used to determine the response to agonist obtained at each concentration of example compound by the following equation:
% Response=100*(RFU(example compound)−RFU(control)/(RFU(DMSO)−RFU(control)
Control=full inhibition by the peptide antagonist Lys-(Des-Arg-Leu)-Bradykinin at 20 μM
The response values were plotted against the logarithm of the compound concentrations. The compounds were tested in triplicates per plate and mean values were plotted in Excel XLfit to determine IC50 values, percentage of maximal inhibition and the Hill slopes.
(In general: Calcium flux is commonly read through the fluorescence of an indicator in the cells.)

Where [1] appears, read: presence of 0.1% BSA in assay buffer, read-out: hB1 IC50.
Setting [2] is: absence of 0.1% BSA in assay buffer, read-out: hB1 free IC50.

pIC50: −log10 of the molar value. Like-named read-outs stand apart in the source and are kept apart here.

`COc1ccc(-c2cc(F)c(NC(=O)C3CC3c3ccc(Cl)cc3)cc2-c2nnn[nH]2)cc1` (racemic) [Example 58, 2-(4-Chlorophenyl)-N-[5-fluoro-4′-methoxy-2-(1H-tetrazol-5-yl)biphenyl-4-yl]cyclopropanecarbox-amide]: under setting [1], the pIC50 is 6.87.
Turning to `CCOc1ccc(-c2ccc(NC(=O)C3CC3c3ccc(F)cc3)cc2-c2nnn[nH]2)cn1` (racemic) [Example 16, N-[4-(6-ethoxypyridin-3-yl)-3-(1H-tetrazol-5-yl)phenyl]-2-(4-fluorophenyl)cyclopro-panecarboxamide], the pIC50 under setting [1] is 7.82.
`CC(C)(C)c1cnn(-c2ccc(NC(=O)C3CC3c3ccc(Cl)cc3)cc2-c2nnn[nH]2)c1` (racemic) [Example 44, N-[4-(4-tert-butyl-1H-pyrazol-1-yl)-3-(1H-tetrazol-5-yl)phenyl]-2-(4-chlorophenyl)cyclopro-panecarboxamide]: under setting [2], the pIC50 was 7.59.
As for `COc1ccc(-c2c(F)cc(NC(=O)C3CC3c3cccc(C)c3)cc2-c2nnn[nH]2)cc1OC` (racemic) [Example 59, N-[2-Fluoro-3′,4′-dimethoxy-6-(1H-tetrazol-5-yl)biphenyl-4-yl]-2-(3-methylphenyl)cyclopro-panecarboxamide], under setting [1], the pIC50 was 7.08.
The same measure, in the same setting: for `COc1cncc(-c2cc(C)c(NC(=O)C3CC3C3CCCCC3)cc2-c2nnn[nH]2)c1` (racemic) [Example 69, 2-Cyclohexyl-N-[4-(5-methoxypyridin-3-yl)-2-methyl-5-(1H-tetrazol-5-yl)phenyl]cyclopropane-carboxamide] the value was 6.35.
The same measure, in the same setting: for `CCOc1ccc(-c2cc(C)c(NC(=O)C3CC3c3cccc(C)c3)cc2-c2nnn[nH]2)cc1OC` (racemic) [Example 72, N-[4′-Ethoxy-3′-methoxy-5-methyl-2-(1H-tetrazol-5-yl)biphenyl-4-yl]-2-(3-methylphenyl)cyclopro-panecarboxamide] the value was 7.42.
With `CCOc1ccc(-c2ccc(NC(=O)C3CC3C3CCCCC3)cc2-c2nnn[nH]2)cc1OC` (racemic) [Example 31, 2-cyclohexyl-N-[4′-ethoxy-3′-methoxy-2-(1H-tetrazol-5-yl)biphenyl-4-yl]cyclopropane-carboxamide], the pIC50 under setting [1] is 7.57.
Turning to `COc1ccc(-c2cc(F)c(NC(=O)C3CC3c3ccc(Cl)cc3)cc2-c2nnn[nH]2)cc1C` (racemic) [Example 57, 2-(4-chlorophenyl)-N-[5-fluoro-4′-methoxy-3′-methyl-2-(1H-tetrazol-5-yl)biphenyl-4-yl]cyclo-propanecarboxamide], the pIC50 by setting is: under setting [2], 7.62; under setting [1], 6.91.
As for `CCOc1cncc(-c2ccc(NC(=O)C3CC3c3ccc(Cl)cc3)cc2-c2nnn[nH]2)c1` (racemic) [Example 22, 2-(4-Chlorophenyl)-N-[4-(5-ethoxypyridin-3-yl)-3-(1H-tetrazol-5-yl)phenyl]cyclopro-panecarboxamide], the pIC50 under setting [1] is 6.22.
In the case of `O=C(Nc1ccc(-c2ccc(OC(F)(F)F)cc2)c(-c2nnn[nH]2)c1)C1CC1C1CCCCC1` (racemic) [Example 42, 2-cyclohexyl-N-[2-(1H-tetrazol-5-yl)-4′-(trifluoro-methoxy)biphenyl-4-yl]cyclopropanecarbox-amide], under setting [1], the pIC50 was 7.51.
Turning to `COc1ccc(-c2ccc(NC(=O)C3CC3c3ccccc3OC(F)(F)F)cc2-c2nnn[nH]2)cc1OC` (racemic) [Example 6, N-[3′,4′-dimethoxy-2-(1H-tetrazol-5-yl)biphenyl-4-yl]-2-[2-(trifluoromethoxy)phen-yl]cyclopropane-carboxamide], the pIC50 is, setting by setting: under setting [2], 8.22; under setting [1], 7.70.
Take `CC1(C(=O)Nc2ccc(-c3ccc(C(F)(F)F)nc3)c(-c3nnn[nH]3)c2)CC1c1ccccc1` (racemic) [Example 29, 1-Methyl-2-phenyl-N-{3-(1H-tetrazol-5-yl)-4-[6-(trifluoromethyl)pyridin-3-yl]phenyl}cyclopro-panecarboxamide]: the pIC50 under setting [2] is 6.28.
Turning to `COc1ccc(-c2c(F)cc(NC(=O)C3CC3C3CCCCC3)cc2-c2nnn[nH]2)cc1OC` (racemic) [Example 60, 2-Cyclohexyl-N-[2-fluoro-3′,4′-dimethoxy-6-(1H-tetrazol-5-yl)biphenyl-4-yl]cyclopro-panecarboxamide], the pIC50 under setting [1] is 6.75.
Same read-out and setting: as for `COc1cncc(-c2ccc(NC(=O)C3CC3C3CCCCC3)cc2-c2nnn[nH]2)c1` (racemic) [Example 24, 2-Cyclohexyl-N-[4-(5-methoxypyridin-3-yl)-3-(1H-tetrazol-5-yl)phenyl]cyclopro-panecarboxamide], the figure is 6.51; as for `CCOc1ccc(-c2cc(C)c(NC(=O)C3CC3c3cccc(C)c3)cc2-c2nnn[nH]2)cn1` (racemic) [Example 63, N-[4-(6-Ethoxypyridin-3-yl)-2-methyl-5-(1H-tetrazol-5-yl)phenyl]-2-(3-methylphenyl)cyclo-propanecarboxamide], 7.62; as for `COCc1ccc(-c2ccc(NC(=O)C3CC3C3CCCCC3)cc2-c2nnn[nH]2)cc1` (racemic) [Example 82, 2-cyclohexyl-N-[4′-(methoxymethyl)-2-(1H-tetrazol-5-yl)biphenyl-4-yl]cyclopropanecarbox-amide], 5.59.
With `COCc1ccc(-c2ccc(NC(=O)C3CC3c3ccc(Cl)cc3)cc2-c2nnn[nH]2)cc1` (racemic) [Example 38, 2-(4-chlorophenyl)-N-[4′-(methoxymethyl)-2-(1H-tetrazol-5-yl)biphenyl-4-yl]cyclopropanecarbox-amide], under setting [1], the pIC50 is 5.83.
Turning to `COc1ccc(-c2ccc(NC(=O)C3CC3c3ccc(Cl)cc3)cc2-c2nnn[nH]2)cc1Cl` (racemic) [Example 39, N-[3′-chloro-4′-methoxy-2-(1H-tetrazol-5-yl)biphenyl-4-yl]-2-(4-chlorophenyl)cyclopro-panecarboxamide], the negative-log IC50 (pIC50) under setting [1] is 5.91.
Still for that read-out and setting: for `COc1ccc(-c2cc(F)c(NC(=O)C3CC3c3cccc(C)c3)cc2-c2nnn[nH]2)cc1C` (racemic) [Example 56, N-[5-Fluoro-4′-methoxy-3′-methyl-2-(1H-tetrazol-5-yl)biphenyl-4-yl]-2-(3-methylphenyl)cyclopro-panecarboxamide] the value was 7.72; for `CCOc1ccc(-c2ccc(NC(=O)C3CC3C3CCCCC3)cc2-c2nnn[nH]2)cn1` (racemic) [Example 20, 2-Cyclohexyl-N-[4-(6-ethoxypyridin-3-yl)-3-(1H-tetrazol-5-yl)phenyl]cyclopro-panecarboxamide], 6.41; for `COc1ccc(-c2cc(C)c(NC(=O)C3CC3C3CCCCC3)cc2-c2nnn[nH]2)cc1OC` (racemic) [Example 67, 2-Cyclohexyl-N-[3′,4′ dimethoxy-5-methyl-2-(1H-tetrazol-5-yl)biphenyl-4-yl]cyclopro-panecarboxamide], 6.37.
With `Cc1cc(-c2ccc(C(F)(F)F)nc2)c(-c2nnn[nH]2)cc1NC(=O)C1CC1C1CCCCC1` (racemic) [Example 71, 2-Cyclohexyl-N-{2-methyl-5-(1H-tetrazol-5-yl)-4-[6-(trifluoromethyl)pyridin-3-yl]phenyl}cyclopro-panecarboxamide], the pIC50 under setting [2] was 6.51 and the pIC50 under setting [1] is 6.58.
With `COCc1ccc(-c2ccc(NC(=O)C3CC3c3ccc(Cl)cc3)cc2-c2nnn[nH]2)cc1C` (racemic) [Example 32, 2-(4-chlorophenyl)-N-[4′-(methoxymethyl)-3′-methyl-2-(1H-tetrazol-5-yl)biphenyl-4-yl]cyclopro-panecarboxamide], the pIC50 under setting [1] was 7.66.
